Experimental data as given in patent US9668951B2, “Pharmaceutical compositions comprising renewably-based biodegradable 1,3-propanediol” (DuPont Tate & Lyle Bio Products Company, LLC, priority 2006, dated 2017).

Legend:
human skin [1] = assay: second human skin patch test; format: in vivo
Source text: (§1) Based on these studies PDO is not expected to be a skin irritant or sensitizer in humans.

human skin [2] = assay: human skin patch test, 5, 25 and 50% (induction and challenge phases); format: in vivo; details: diluted with D.I. water to 5%, 105 panelists completed
Source text: as §1
The purpose of this study was to determine the potential of biologically-derived 1,3-propanediol, diluted to concentrations of 5%, 25%, and 50%, to cause irritation or delayed contact hypersensitivity in humans. The method employed in carrying out this test, described below, was similar to that described in “Appraisal of the Safety of Chemicals in Foods, Drugs and Cosmetics” by J. H. Drake and published by the Association of Food and Drug Officials of the United States, incorporated herein by reference.
Test Panel: The test involved the application of the test article to the upper arms of a group of 112 volunteer panelists. The panelists ranged from 16 to 71 years of age. One hundred and five panelists completed the study. Prior to the initiation of the study, all panelists were in good general health and free of any visible skin disease or anomaly in the area to be patched. Each panelist was required to read, understand and sign an informed consent statement. […]

Compound	dermal irritation or sensitization reactions (human skin [1]; 25, 50, and 75% PDO at pH 7, or 75% PDO at pH 4 and 9)	skin irritant, fatiguing agent, or sensitizing agent (human skin [2])	patch test irritation of human skin (human skin [1]; 25, 50, and 75% (pH 7))
OCCCO [PDO, 1,3-propanediol]	did not produce any clinically significant dermal irritation or sensitization reactions	not to be a skin irritant, fatiguing agent, or sensitizing agent	
CC(O)CO (stereo not drawn) [propylene glycol, reference compound]			patch test irritants and cumulative irritants
